Tests used:
Rattus norvegicus [1] = experiment: Tested for the antiallergic activity in rat passive cutaneous anaphylaxis (PCA) test; po; format: functional
Rattus norvegicus [2] = experiment: Percent inhibition at a concentration of 25 mg/kg in rat passive cutaneous anaphylaxis (PCA) test; format: functional
Rattus norvegicus [3] = experiment: Percent inhibition at a concentration of 0.02 mg/kg in methacholine induced bronchospasm in rat intraduodenally; format: functional; conditions: route intraduodenal
Rattus norvegicus [4] = experiment: Percent inhibition at a concentration of 0.1 mg/kg in methacholine induced bronchospasm in rat; format: functional
Rattus norvegicus [5] = experiment: Percent inhibition at a concentration of 1.0 mg/kg in methacholine induced bronchospasm in rat; format: functional
Rattus norvegicus [6] = experiment: Percent inhibition at a concentration of 10.0 mg/kg in methacholine induced bronchospasm in rat; format: functional
Rattus norvegicus [7] = organism: Rattus norvegicus; experiment: Tested for the bronchodilator activity by measuring inhibition of allergen induced bronchospasm in rat intra duodenally

N=c1c(-c2nnn[nH]2)cnc2sc3ccccc3n12 was tested, and the ED50 (Rattus norvegicus [1]) was 8.1 mg/kg.
Cc1cc(C)c2sc3ncc(-c4nnn[nH]4)c(=O)n3c2c1 was tested, and the ED50 (Rattus norvegicus [1]) was 1.96 mg/kg.
Cc1cc2sc3ncc(-c4nnn[nH]4)c(=O)n3c2cc1C showed an inhibition in vivo at 25 mg/kg (Rattus norvegicus [2]) of 35%.
Molecule O=c1c(-c2nnn[n-]2)cnc2sc3ccccc3n12.[K+] has an ED50 (Rattus norvegicus [1]) of 0.08 mg/kg, an inhibition in vivo at 0.02 mg/kg (Rattus norvegicus [3]) of 13.2% and an inhibition in vivo at 0.1 mg/kg (Rattus norvegicus [4]) of 37.4%. The inhibition in vivo at 1 mg/kg (Rattus norvegicus [5]) was 59.3%, the inhibition in vivo at 10 mg/kg (Rattus norvegicus [6]) was 61% and the ED50 (Rattus norvegicus [7]) was 0.38 mg/kg.
COc1ccc2c(c1)sc1ncc(-c3nnn[nH]3)c(=O)n12 was tested, and the ED50 (Rattus norvegicus [1]) was 1.9 mg/kg.
O=C([O-])c1cc(=O)c2c(OCC(O)COc3cccc4oc(C(=O)[O-])cc(=O)c34)cccc2o1.[Na+].[Na+] [CROMOLYN SODIUM] was tested, and the ED50 (Rattus norvegicus [1]) was 0.3 mg/kg.
